Data: ChEMBL document CHEMBL5584334, “Discovery of a Covalent Inhibitor of Pro-Caspase-1 Zymogen Blocking NLRP3 Inflammasome Activation and Pyroptosis” (J Med Chem, 2024)
Active and inactive are the calls of the source.

Key:
J774.A1 [1] = assay: Inhibition of ASC to pro-caspase-1 interaction in LPS/nigericin stimulated mouse J774.A1 cells; assay type: cell-based
[2] = test system: Caspase-1 (Homo sapiens), P29466 [C244A]; assay: Inhibition of recombinant caspase-1 C244A mutant (unknown origin) at 100 uM relative to control
Sequence of Caspase-1 (Homo sapiens), P29466 [C244A] (P29466 whole entry C244A): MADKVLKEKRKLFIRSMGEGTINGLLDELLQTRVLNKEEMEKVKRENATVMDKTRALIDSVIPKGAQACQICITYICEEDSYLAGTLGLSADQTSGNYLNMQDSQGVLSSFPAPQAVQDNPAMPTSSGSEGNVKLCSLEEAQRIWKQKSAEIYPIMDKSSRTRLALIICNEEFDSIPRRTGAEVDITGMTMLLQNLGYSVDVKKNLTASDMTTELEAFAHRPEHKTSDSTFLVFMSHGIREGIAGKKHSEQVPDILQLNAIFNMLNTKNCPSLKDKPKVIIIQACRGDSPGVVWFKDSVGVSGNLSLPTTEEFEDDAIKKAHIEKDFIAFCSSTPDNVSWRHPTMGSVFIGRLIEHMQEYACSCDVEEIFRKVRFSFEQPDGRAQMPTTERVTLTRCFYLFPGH

BMDM = assay: Effect on pro caspase-11 expression in mouse BMDM cells at 0.5 to 2 uM pretreated with pam3CSK4 for 3 hrs followed by compound addition for 30 mins prior to cytosolic LPS stimulation for 16 hrs by ELISA; assay type: functional, cell-based; conditions: dose 0.5-2 µM, time 16.5 hrs
[3] = Acute toxicity in Kunming mouse assessed as heart damage at 100 mg/kg, ip administered for 14 days; assay type: organism-based; conditions: in vivo, 336 h, time 14 day
THP-1 [4] = assay: Effect on cleaved caspase-4 expression in human THP-1 cells at 2 uM pretreated with pam3CSK4 for 3 hrs followed by compound addition for 30 mins prior to cytosolic LPS stimulation for 16 hrs by ELISA; assay type: functional, cell-based; conditions: time 16.5 hrs
THP-1 [5] = assay: Effect on pro-1L-1beta protein expression in LPS/ATP stimulated human THP-1 cells supernatant by Western blotting analysis; assay type: functional, cell-based
[6] = target: NACHT, LRR and PYD domains-containing protein 3 (Mus musculus) (UniProt Q8R4B8); assay: Inhibition of NLRP3 inflammasome activation in mouse J774.A1 cells assessed as reduction in NLRP3 protein expression at 0.5 to 2 uM preincubated for 30 mins followed by LPS stimulation for 6 hrs by Western blotting analysis; assay type: cell-based; conditions: dose 0.5-2 µM, time 6.5 hrs
Sequence of NACHT, LRR and PYD domains-containing protein 3 (Mus musculus) (Q8R4B8 whole entry, the tested form may be a part): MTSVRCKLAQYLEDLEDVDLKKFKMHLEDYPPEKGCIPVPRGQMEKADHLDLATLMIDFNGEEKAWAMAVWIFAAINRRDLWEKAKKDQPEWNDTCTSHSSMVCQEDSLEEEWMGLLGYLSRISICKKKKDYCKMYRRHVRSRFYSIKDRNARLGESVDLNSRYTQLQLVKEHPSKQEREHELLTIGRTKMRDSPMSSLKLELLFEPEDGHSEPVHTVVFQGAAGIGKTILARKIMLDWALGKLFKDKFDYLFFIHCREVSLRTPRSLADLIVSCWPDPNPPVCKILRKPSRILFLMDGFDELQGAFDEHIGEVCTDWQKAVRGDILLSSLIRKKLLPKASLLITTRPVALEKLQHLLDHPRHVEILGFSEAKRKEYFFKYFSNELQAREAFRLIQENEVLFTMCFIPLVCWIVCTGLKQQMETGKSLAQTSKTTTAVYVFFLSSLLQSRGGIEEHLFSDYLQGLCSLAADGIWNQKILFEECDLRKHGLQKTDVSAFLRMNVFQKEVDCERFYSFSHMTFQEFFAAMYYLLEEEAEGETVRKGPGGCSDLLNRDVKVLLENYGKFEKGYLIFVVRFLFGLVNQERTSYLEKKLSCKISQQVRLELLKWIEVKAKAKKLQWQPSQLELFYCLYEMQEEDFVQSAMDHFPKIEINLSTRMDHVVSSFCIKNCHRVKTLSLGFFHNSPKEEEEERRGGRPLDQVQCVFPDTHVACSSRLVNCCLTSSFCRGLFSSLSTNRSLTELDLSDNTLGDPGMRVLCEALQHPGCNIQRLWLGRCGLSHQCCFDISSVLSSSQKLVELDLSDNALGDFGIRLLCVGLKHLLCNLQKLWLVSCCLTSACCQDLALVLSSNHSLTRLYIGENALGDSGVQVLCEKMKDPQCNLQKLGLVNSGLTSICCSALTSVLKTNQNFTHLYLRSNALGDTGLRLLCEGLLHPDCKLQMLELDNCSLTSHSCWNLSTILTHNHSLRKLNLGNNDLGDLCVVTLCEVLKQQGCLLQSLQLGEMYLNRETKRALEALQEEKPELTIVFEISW

J774.A1 [7] = assay: Inhibition of pyroptosis in mouse J774.A1 cells assessed as reduction in cleaved GSDMD expression at 0.5 to 2 uM pretreated with LPS for 3 hrs followed by compound addition in presence of nigericin by Western blotting analysis; assay type: functional, cell-based; conditions: dose 0.5-2 µM
[8] = target: NACHT, LRR and PYD domains-containing protein 3 (Mus musculus) (UniProt Q8R4B8); assay: Inhibition of NLRP3 inflammasome activation in LPS primed Casp1 knockout mouse BMDM cells transfected with caspase-1 C395A mutant assessed as reduction in IL-1beta release at 2 uM preincubated for 30 mins followed by nigericin stimulation; assay type: cell-based
[9] = Tmax in rat at 25 mg/kg, po; assay type: ADME, organism-based; conditions: in vivo
J774.A1 [10] = assay: Inhibition of NF-kappaB signaling in LPS-stimulated mouse J774.A1 cells at 1 uM preincubated for 30 mins followed by LPS addition and measured after 2 hrs by Western blotting analysis; assay type: cell-based; conditions: time 2.5 hrs
Caspase-1 = target: T1, Caspase-1 (Homo sapiens, UniProt P29466); assay: Inhibition of recombinant human caspase-1 expressed in Escherichia coli BL21 cells using […] as substrate incubated for 30 mins
T1 sequence (P29466 whole entry): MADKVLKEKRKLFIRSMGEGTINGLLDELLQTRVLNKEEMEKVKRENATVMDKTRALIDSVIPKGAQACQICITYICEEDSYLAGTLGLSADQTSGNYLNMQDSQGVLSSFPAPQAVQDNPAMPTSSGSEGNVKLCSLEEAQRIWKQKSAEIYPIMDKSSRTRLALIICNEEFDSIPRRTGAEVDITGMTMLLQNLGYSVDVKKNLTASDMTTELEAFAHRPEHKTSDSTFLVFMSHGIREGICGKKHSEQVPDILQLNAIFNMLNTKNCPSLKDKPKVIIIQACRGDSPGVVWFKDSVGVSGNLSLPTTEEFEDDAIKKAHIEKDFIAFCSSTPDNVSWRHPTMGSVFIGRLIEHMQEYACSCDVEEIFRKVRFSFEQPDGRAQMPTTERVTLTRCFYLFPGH

J774.A1 [11] = assay: Inhibition of mitochondrial damage in LPS/nigericin stimulated mouse J774.A1 cells; assay type: functional, cell-based
J774.A1 [12] = assay: Inhibition of pyroptosis in mouse J774.A1 cells assessed as reduction in caspase-1 to GSDMD interaction at 1 uM pretreated with LPS for 3 hrs followed by compound addition in presence of nigericin by immunoprecipitation analysis; assay type: functional, cell-based
Mus musculus [13] = assay: Anti-inflammatory activity in LPS/MSU-induced Casp1 knockout C57BL/6 mouse model of acute peritonitis assessed as reduction in IL-1beta expression at 20 mg/kg, ip preadministered intraperitoneally with compound for 30 mins followed by MSU injection and measured after 6 hrs by ELISA; assay type: functional, organism-based
[14] = target: NACHT, LRR and PYD domains-containing protein 3 (Mus musculus) (UniProt Q8R4B8); assay: Inhibition of NLRP3 inflammasome activation in LPS primed Casp1 knockout mouse BMDM cells transfected with caspase-1 C397A mutant assessed as reduction in IL-1beta release at 2 uM preincubated for 30 mins followed by nigericin stimulation; assay type: cell-based
[15] = test system: Caspase-1 (Homo sapiens), P29466 [C285A]; assay: Binding affinity to Flag-tagged caspase-1 C285A mutant (unknown origin) expressed in HEK293T cells by pull-down assay; assay type: cell-based; conditions: dose 2.0 µM
Sequence of Caspase-1 (Homo sapiens), P29466 [C285A] (P29466 whole entry C285A): as the sequence (P29466 whole entry C244A) above, with A244C, C285A counted along it

HEK293T = assay: Inhibition of recombinant wild type caspae-1 (unknown origin) to GSDMD (unknown origin) interaction expressed in HEK293T cells; assay type: cell-based; conditions: Homo sapiens
[16] = test system: Caspase-1 (Homo sapiens), P29466 [C397A]; assay: Binding affinity to recombinant caspase-1 C397A mutant (unknown origin) at 2 uM by SDS-PAGE analysis
Sequence of Caspase-1 (Homo sapiens), P29466 [C397A] (P29466 whole entry C397A): as the sequence (P29466 whole entry C244A) above, with A244C, C397A counted along it

Mus musculus [17] = species: Mus musculus; assay: Inhibition of pain perception in MSU/C18:0 free fatty acid induced Casp1 knockout mouse measured upto 24 hrs; assay type: functional, organism-based
Mus musculus [18] = assay: Anti-inflammatory activity in MSU/C18:0 free fatty acid induced Kunming mouse model of gouty arthritis assessed as effect on ASC expression at 5 to 20 mg/kg, ip preadministered with compound for 30 mins followed by MSU/C18:0 free fatty acid injection and measured after 24 hrs by Western blotting analysis; assay type: functional, organism-based; conditions: dose 5-20 mg/kg, time 24.5 hrs
[19] = target: NACHT, LRR and PYD domains-containing protein 3 (Mus musculus) (UniProt Q8R4B8); assay: Inhibition of NLRP3 inflammasome activation in LPS primed Casp1 knockout mouse BMDM cells transfected with caspase-1 C285A/C397A double mutant assessed as reduction in IL-1beta release at 2 uM preincubated for 30 mins followed by nigericin stimulation; assay type: cell-based
[20] = Acute toxicity in Kunming mouse assessed as change in LDH level at 100 mg/kg, ip administered for 14 days; assay type: organism-based; conditions: in vivo, 336 h, time 14 day
[21] = Acute toxicity in Kunming mouse assessed as change in ALT level at 100 mg/kg, ip administered for 14 days; assay type: organism-based; conditions: in vivo, 336 h, time 14 day
THP-1 [22] = assay: Effect on pro-caspase 1 protein expression in LPS/MSU stimulated human THP-1 cells supernatant by Western blotting analysis; assay type: functional, cell-based
J774.A1 [23] = assay: Inhibition of ROS production in LPS/nigericin stimulated mouse J774.A1 cells; assay type: functional, cell-based
[24] = target: NACHT, LRR and PYD domains-containing protein 3 (Mus musculus) (UniProt Q8R4B8); assay: Inhibition of NLRP3 inflammasome activation in LPS primed Casp1 knockout mouse BMDM cells transfected with caspase-1 C284A mutant assessed as reduction in IL-1beta release at 2 uM preincubated for 30 mins followed by nigericin stimulation; assay type: cell-based
THP-1 [25] = assay: Effect on pro-caspase 1 protein expression in LPS/ATP stimulated human THP-1 cells supernatant by Western blotting analysis; assay type: functional, cell-based
J774.A1 [26] = assay: Effect on ASC oligomerization in mouse J774.A1 cells at 2 uM pretreated with LPS for 3 hrs prior to compound addition followed by nigericin stimulation; assay type: functional, cell-based
[27] = test system: Caspase-1 (Homo sapiens), P29466 [C285A]; assay: Binding affinity to recombinant caspase-1 C285A mutant (unknown origin) at 2 uM by SDS-PAGE analysis
J774.A1 [28] = assay: Inhibition of pro-caspase 1 to RIP2 interaction in LPS stimulated mouse J774.A1 cells at 1 uM by immunoprecipitation method; assay type: cell-based

COc1ccc2c(c1)[C@]1(C=C[C@H](N=C=S)C[C@H]1C(=O)OC(C)(C)C)C(=O)N2C(=O)OCc1ccccc1
inactive: inhibition [2] | Activity (BMDM) | Activity (THP-1 [4]) | Activity (THP-1 [5]) | inhibition [8] | inhibition (J774.A1 [11]) | Activity (Mus musculus [13]) | inhibition [14] | Activity [15] | Activity [16] | inhibition (Mus musculus [17]) | Activity (Mus musculus [18]) | inhibition [19] | Activity (THP-1 [22]) | inhibition (J774.A1 [23]) | inhibition [24] | Activity (THP-1 [25]) | Activity [27]
active: inhibition (J774.A1 [1]) | inhibition [6] | inhibition (J774.A1 [7]) | inhibition (J774.A1 [10]) | inhibition (J774.A1 [12]) | inhibition (HEK293T) | inhibition (J774.A1 [26]) | inhibition (J774.A1 [28])
650 nM: IC50 (Caspase-1)
Non-Toxic: Activity [3] | Activity [20] | Activity [21]
1.5 h: Tmax [9]
